Source: patent US4487927A, “3-Phosphonium and 3-phosphoranylidenecephems” (Fujisawa Pharmaceutical Co., Ltd., priority 1979, dated 1984)
In brackets after ≈: the same amount, converted by molar mass.

Legend:
[1] = tested on: Batilus subtilis ATCC 6633; assay: In vitro antimicrobial activity, two-fold agar-plate dilution method (MIC); type: cell-based; conditions: 37° C. for 20 hours, HI-agar; for MIC: 20 h, read-out: minimal inhibitory concentration (MIC)
Experimental: (§1) In vitro Antimicrobial activity was determined by the two-fold agar-plate dilution method as described below.
(§2) One loopful of an overnight culture of each test strain in Tripticase-soy broth (approximately 10^8 viable cells per ml) was streaked on heart infusion agar (HI-agar containing graded concentrations of antimicrobial agents, and the minimal inhibitory concentration (MIC) was expressed in term of μg/ml after incubation at 37° C. for 20 hours.

[2] = tested on: Staphylococcus aureus 209P JC-1; assay: as above; type: cell-based; conditions: 37° C. for 20 hours, HI-agar; for MIC: Staphylococcus aureus, 209P, 20 h, read-out: minimal inhibitory concentration (MIC)
Experimental: as §1, §2

[3] = Determination of serum levels after oral administration in rats (disc method); type: in vivo, SD strain; conditions: rat, 100 mg/kg orally, fasted male SD rats, read-out: Mean Serum Level
Experimental: (2) Test 2: Determination of serum levels after oral administration of anti-microbial agents in rats
6 weeks old male rats, SD strain, each weighing 160-230 g.
The test compound A (100 mg/kg) was given orally to rats which had been fasted overnight. At specified intervals, the rats were anethetized with chloroform and blood samples were collected from the heart. The anti-microbial levels in each serum sample were determined by the disc method using standard solutions prepared with serum from rats.

Escherichia coli 29 = assay: Protecting effect in experimental mice infection; type: in vivo, ICR strain; Escherichia coli; conditions: Escherichia coli 29 injected intraperitoneally; oral dose one hour after injection; 4 days observation; probit method
Source text: (3) Test 3: Protecting effect in experimental mice infection 4-weeks old male mice, ICR strain, each weighing 20.0±1.5 g. 1.3×10^4 cells of pathogenic microorganisms, suspended in 2.5% mucin, were intraperitoneally injected. One hour after the injection, Compound A was orally given.

Proteus mirabilis 18 = assay: In vitro antimicrobial activity, two-fold agar-plate dilution method (MIC); type: cell-based; conditions: 37° C. for 20 hours, HI-agar, read-out: minimal inhibitory concentration (MIC)
Experimental: as §1, §2

Proteus mirabilis 1 = assay: as above; type: cell-based; conditions: 37° C. for 20 hours, HI-agar, read-out: minimal inhibitory concentration (MIC)
Experimental: as §1, §2

Proteus vulgaris 2 = assay: as above; type: cell-based; conditions: 37° C. for 20 hours, HI-agar, read-out: minimal inhibitory concentration (MIC)
Experimental: as §1, §2

Row | Structure (SMILES) | MIC [1] | MIC [2] | MIC (Proteus mirabilis 18) | MIC (Proteus mirabilis 1) | also measured
1 | C=CC1=C(C(=O)O)N2C(=O)C(NC(=O)[C@H](N)c3cccc(NS(C)(=O)=O)c3)[C@H]2SC1 (stereo partly drawn) [Compound A, 7-[2-(3-Methanesulfonamidophenyl)-D-glycinamido]-3-vinyl-3-cephem-4-carboxylic acid] | 0.1 µg/mL (≈ 0.221 µM) | 1.56 µg/mL (≈ 3.45 µM) | – | – | concentration at 1 h ([3]; 1 hour): 38500 ng/mL; concentration at 2 h ([3]; 2 hours): 34900 ng/mL; concentration at 4 h ([3]; 4 hours): 31000 ng/mL; concentration at 6 h ([3]; 6 hours): 28800 ng/mL; ED50 value (Escherichia coli 29): 0.480 mg/mouse
2 | C=CC1=C(C(=O)O)N2C(=O)C(NC(=O)Cc3csc(N)n3)[C@H]2SC1 (stereo partly shown) [Compound B, 7-[2-(2-Aminothiazol-4-yl)acetamido]-3-vinyl-3-cephem-4-carboxylic acid] | – | 1.56 µg/mL (≈ 4.26 µM) | – | – | minimal inhibitory concentration (MIC) [1]: 1.56 µg/mL (≈ 4.26 µM)
3 | C=CC1=C(C(=O)O)N2C(=O)C(NC(=O)C(O)c3csc(N)n3)[C@H]2SC1 (stereo partly shown) [Compound C, 7-[2-(2-Aminothiazol-4-yl)glycolamido]-3-vinyl-3-cephem-4-carboxylic acid] | 0.78 µg/mL (≈ 2.04 µM) | 1.56 µg/mL (≈ 4.08 µM) | – | – | –
4 | C=CC1=C(C(=O)O)N2C(=O)C(NC(=O)Cc3cnc(NC=O)s3)[C@H]2SC1 (stereo partly shown) [Compound D, 7-[2-(2-Formamidothiazol-5-yl)acetamido]-3-vinyl-3-cephem-4-carboxylic aci d] | 0.2 µg/mL (≈ 0.507 µM) | 0.39 µg/mL (≈ 0.989 µM) | – | – | –
5 | C=CC1=C(C(=O)O)N2C(=O)C(NC(=O)Cc3cnc(N)s3)[C@H]2SC1 (stereo partly shown) [Compound E, 7-[2-(2-Aminothiazol-5-yl)acetamido]-3-vinyl-3-cephem-4-carboxylic acid] | 0.05 µg/mL (≈ 0.136 µM) | 0.78 µg/mL (≈ 2.13 µM) | – | – | –
6 | C=CC1=C(C(=O)O)N2C(=O)C(NC(=O)Cc3cnc(NS(C)(=O)=O)s3)[C@H]2SC1 (stereo partly shown) [Compound F, 7-[2-(2-Methanesulfonamidothiazol-5-yl)acetamido]-3-vinyl-3-cephem-4-carboxylic acid] | 0.39 µg/mL (≈ 0.877 µM) | 1.56 µg/mL (≈ 3.51 µM) | – | – | –
7 | Br.C=CC1=C(C(=O)O)N2C(=O)C(NC(=O)Cc3csc(NC(=N)N)n3)[C@H]2SC1 (stereo partly shown) [Compound G, 7-[2-(2-Guanidinothiazol-4-yl)acetamido]-3-vinyl-3-cephem-4-carboxylic aci d hydrobromide] | 0.1 µg/mL | 0.39 µg/mL | – | – | –
8 | C=CC1=C(C(=O)O)N2C(=O)C(NC(=O)Cc3csc(N)n3)[C@H]2SC1 (stereo partly shown) [Compound H, 7-[2-(2-Aminothiazol-4-yl)acetamido]-3-vinyl-3-cephem-4-carboxylic acid] | – | – | – | – | minimal inhibitory concentration (MIC) [1]: 0.39 µg/mL (≈ 1.06 µM); minimal inhibitory concentration (MIC) [2]: 0.78 µg/mL (≈ 2.13 µM)
9 | C=CC1=C(C(=O)O)N2C(=O)C(NC(=O)/C(=N\OC)c3csc(N)n3)C2SC1 (stereo not drawn) [Compound I, 7-[2-(2-Aminothiazol-4-yl)-2-methoxyiminoacetamido]-3-vinyl-3-cephem-4-carboxylic acid (syn isomer)] | – | – | < 0.025 µg/mL | 0.05 µg/mL (≈ 0.122 µM) | –
10 | C=CC1=C(C(=O)O)N2C(=O)C(NC(=O)/C(=N\OCC)c3csc(N)n3)C2SC1 (stereo not drawn) [Compound J, 7-[2-(2-Aminothiazol-4-yl)-2-ethoxyiminoacetamido]-3-vinyl-3-cephem-4-carboxylic acid (syn isomer)] | 0.78 µg/mL (≈ 1.84 µM) | 1.56 µg/mL (≈ 3.68 µM) | – | – | –
11 | C=CC1=C(C(=O)O)N2C(=O)C(NC(=O)/C(=N\OCCCCCC)c3csc(N)n3)C2SC1 (stereo not drawn) [Compound K, 7-[2-(2-Aminothiazol-4-yl)-2-hexyloxyiminoacetamido]-3-vinyl-3-cephem-4-carboxylic acid (syn isomer)] | 0.78 µg/mL (≈ 1.63 µM) | 1.56 µg/mL (≈ 3.25 µM) | – | – | –
12 | C=CC1=C(C(=O)O)N2C(=O)C(NC(=O)/C(=N\OCC(=O)OC[C@H](N)C(=O)O)c3csc(N)n3)C2SC1 (stereo partly drawn) [Compound L, 7-[2-(2-Aminothiazol-4-yl)-2-(L-2-amino-2-carboxyethoxycarbonylmethoxyimino)acetamido]-3-vinyl-3-cephem-4-carboxylic acid (syn isomer)] | – | – | 0.05 µg/mL (≈ 0.0925 µM) | 0.05 µg/mL (≈ 0.0925 µM) | –
13 | C=CC1=C(C(=O)O)N2C(=O)C(NC(=O)/C(=N\OCC(=O)O)c3csc(N)n3)C2SC1 (stereo not drawn) [Compound M, 7-[2-(2-Aminothiazol-4-yl)-2-carboxymethoxyiminoacetamido]-3-vinyl-3-cephem-4-carboxylic acid (syn isomer)] | – | – | < 0.025 µg/mL | < 0.025 µg/mL | –
14 | C=CC1=C(C(=O)O)N2C(=O)C(NC(=O)/C(=N\OCC(=O)O)c3nc(N)sc3Cl)C2SC1 (stereo not drawn) [Compound N, 7-[2-(2-Amino-5-chlorothiazol-4-yl)-2-carboxymethoxyiminoacetamido]-3-vinyl-3-cephem-4-carboxylic acid (syn isomer)] | – | – | 0.05 µg/mL (≈ 0.102 µM) | 0.2 µg/mL (≈ 0.41 µM) | MIC (Proteus vulgaris 2): 0.05 µg/mL (≈ 0.102 µM)
15 | C=CC1=C(C(=O)O)N2C(=O)C(NC(=O)/C(=N\OC/C=C/C(=O)O)c3csc(N)n3)C2SC1 (stereo not drawn) [Compound O, 7-[2-(2-Aminothiazol-4-yl)-2-(trans-3-carboxyallyloxyimino)acetamido]-3-vinyl-3-cephem-4-carboxylic acid (syn isomer)] | – | – | 0.1 µg/mL (≈ 0.209 µM) | 0.1 µg/mL (≈ 0.209 µM) | MIC (Proteus vulgaris 2): < 0.025 µg/mL
16 | C=CC1=C(C(=O)O)N2C(=O)C(NC(=O)/C(=N\OCCCC(=O)O)c3csc(N)n3)C2SC1 (stereo not drawn) [Compound P, 7-[2-(2-Aminothiazol-4-yl)-2-(3-carboxypropoxyimino)acetamido]-3-vinyl-3-cephem-4-carboxylic acid (syn isomer)] | – | – | 0.05 µg/mL (≈ 0.104 µM) | 0.1 µg/mL (≈ 0.208 µM) | MIC (Proteus vulgaris 2): < 0.025 µg/mL
